Results: article PMC6601062, “Identification of duck liver-expressed antimicrobial peptide 2 and characterization of its bactericidal activity” (Asian-Australasian Journal of Animal Sciences, 2018)
Bridge positions count the residues as written; N and C are the ends. Peptide text beside a SMILES is read from it.

Assays:
[1] = tested on: Salmonella enterica serovar Enteritidis YHS 383; assay: Antimicrobial activity assay (colony counting); format: cell-based; conditions: 3 h at 37°C, PBS pH 7.4, colony counting; concentration not given
Description: (§1) The bacterial species used in this experiment included two gram-positive bacteria strains, Listeria monocytogenes (L. monocytogenes) ATCC 19115 and Staphylococcus aureus (S. aureus) ATCC 27664, and four gram-negative bacteria strains, E. coli ATCC 43888, Salmonella enterica serovar Enteritidis YHS 383, Salmonella enterica serovar Choleraesuis YHS 386, and Salmonella enterica serovar Typhimurium ATCC 43174.
(§2) Bacteria were cultured overnight at 37°C in LB broth for E. coli, and in tryptic soy broth for the other bacteria, and suspended to 5.0×10^5 colony-forming units (CFU)/mL in PBS (pH 7.4). To measure antimicrobial activity, 25 μL of bacteria were added into 96-well microtiter plates and diluted duck LEAP-2 peptides were dispensed to final concentrations of 50, 100, 150, and 200 μg/mL. After 3 h of incubation at 37°C, surviving bacteria were counted using a standard colony counting assay according to the following formula: cell survival % = (treatment CFU/negative control CFU)×100. To determine the killing kinetics, L. monocytogenes and S. aureus were cultured overnight in tryptic soy broth and suspended to 5.0×10^5 CFU/mL in PBS (pH 7.4). Bacteria were added into 96-well microtiter plates with a final peptide concentration of 200 μg/mL. The bacteria and peptide mixture was incubated for 0, 30, 60, 90, and 180 min at 37°C. Surviving bacteria were counted using a standard colony counting assay.

[2] = tested on: Listeria monocytogenes ATCC 19115; assay: Killing kinetics (colony counting); format: cell-based; conditions: 200 μg/mL peptide, 37°C, PBS pH 7.4; sampled at 0, 30, 60, 90, 180 min
Description: as §2

Staphylococcus aureus = assay: Killing kinetics (colony counting); format: cell-based; conditions: 200 μg/mL peptide, 37°C, PBS pH 7.4; sampled at 0, 30, 60, 90, 180 min
Description: as §2

[3] = tested on: Listeria monocytogenes (L. monocytogenes) ATCC 19115; assay: Antimicrobial activity assay (colony counting); format: cell-based; conditions: 50 μg/mL peptide, 3 h at 37°C, 5.0×10^5 CFU/mL in PBS pH 7.4, colony counting
Description: as §1, §2

[4] = tested on: Salmonella enterica serovar Typhimurium ATCC 43174; assay: Antimicrobial activity assay (colony counting); format: cell-based; conditions: 200 μg/mL peptide, 3 h at 37°C, PBS pH 7.4, colony counting
Description: as §1, §2

[5] = tested on: Staphylococcus aureus (S. aureus) ATCC 27664; assay: Antimicrobial activity assay (colony counting); format: cell-based; conditions: 50 μg/mL peptide, 3 h at 37°C, 5.0×10^5 CFU/mL in PBS pH 7.4, colony counting
Description: as §1, §2

E. coli ATCC 43888 = assay: Antimicrobial activity assay (colony counting); format: cell-based, Escherichia coli; conditions: 50 μg/mL peptide, 3 h at 37°C, PBS pH 7.4, colony counting
Description: as §1
as §2, with “The bacteria and peptide mixture was incubated for 0, 30, 60, 90, and 180 min at 37°C.” left out

L. monocytogenes = assay: Fluorescence microscopic analysis, LIVE/DEAD BacLight staining; format: cell-based, Listeria monocytogenes; conditions: 200 μg/mL peptide, 3 h at 37°C, SYTO9 / propidium iodide
Description: (§3) E. coli, S. aureus, and L. monocytogenes (5.0×10^5 CFU/mL) in PBS were incubated with a 200 μg/mL (final concentration) of the disulfide-LEAP-2 peptide for 3 h at 37°C. After incubation, the cells were washed with PBS and stained with LIVE/DEAD BacLight Bacterial Viability Kits (Invitrogen, USA) according to the manufacturer’s instructions. In brief, the bacteria were incubated for 15 min with SYTO9 green fluorescent […] and with propidium iodide in a dark room. The cells were then mounted onto glass slides and examined using EVOS FLoid Cell Imaging Station (Invitrogen, USA).

S. aureus = assay: as above; format: cell-based, Staphylococcus aureus; conditions: 200 μg/mL peptide, 3 h at 37°C, SYTO9 / propidium iodide
Description: as §3

E. coli = assay: as above; format: cell-based, Escherichia coli; conditions: 200 μg/mL peptide, 3 h at 37°C, SYTO9 / propidium iodide
Description: as §3

SMILES: CC[C@H](C)[C@H](NC(=O)[C@H](CS)NC(=O)[C@H](CCC(=O)O)NC(=O)[C@H](CO)NC(=O)[C@H](CC(N)=O)NC(=O)[C@H](CC(=O)O)NC(=O)[C@H](CCCNC(=N)N)NC(=O)[C@H](CS)NC(=O)[C@H](CO)NC(=O)[C@H](C)NC(=O)CNC(=O)[C@@H](NC(=O)[C@@H]1CCCN1C(=O)[C@H](CCCNC(=N)N)NC(=O)[C@H](CC(C)C)NC(=O)[C@H](CO)NC(=O)[C@@H](NC(=O)CNC(=O)[C@H](CCCNC(=N)N)NC(=O)[C@H](Cc1c[nH]c2ccccc12)NC(=O)[C@H](Cc1ccccc1)NC(=O)[C@@H]1CCCN1C(=O)[C@@H](NC(=O)[C@@H](N)CCSC)[C@@H](C)O)C(C)C)[C@@H](C)CC)C(=O)N[C@H](C(=O)N[C@@H](CCSC)C(=O)N[C@@H](CC(C)C)C(=O)N[C@@H](CS)C(=O)N[C@@H](CCCNC(=N)N)C(=O)N[C@@H](CCCCN)C(=O)N[C@@H](CC(N)=O)C(=O)N[C@@H](CCCNC(=N)N)C(=O)N[C@@H](CS)C(=O)N[C@@H](Cc1ccccc1)C(=O)N[C@@H](CC(C)C)C(=O)N[C@@H](CCCNC(=N)N)C(=O)N[C@@H](CO)C(=O)N[C@@H](C)C(=O)N[C@@H](CO)C(=O)N[C@@H](CCC(=O)O)C(=O)O)[C@@H](C)O [linear LEAP-2] (H-MTPFWRGVSLRPIGASCRDNSECITMLCRKNRCFLRSASE-OH; N-terminus and C-terminus assumed)
- S. Enteritidis inhibited [1]: not inhibited
- time in which all L. monocytogenes were killed [2]: ≤ 30 min
- killing of S. aureus over time (Staphylococcus aureus): killed S. aureus gradually over time

SMILES: CC[C@H](C)[C@@H]1NC(=O)[C@@H]2CSSC[C@@H](C(=O)N[C@@H](Cc3ccccc3)C(=O)N[C@@H](CC(C)C)C(=O)N[C@@H](CCCNC(=N)N)C(=O)N[C@@H](CO)C(=O)N[C@@H](C)C(=O)N[C@@H](CO)C(=O)N[C@@H](CCC(=O)O)C(=O)O)NC(=O)[C@H](CCCNC(=N)N)NC(=O)[C@H](CC(N)=O)NC(=O)[C@H](CCCCN)NC(=O)[C@H](CCCNC(=N)N)NC(=O)[C@H](CSSC[C@H](NC(=O)[C@H](CO)NC(=O)[C@H](C)NC(=O)CNC(=O)[C@@H](NC(=O)[C@@H]3CCCN3C(=O)[C@H](CCCNC(=N)N)NC(=O)[C@H](CC(C)C)NC(=O)[C@H](CO)NC(=O)[C@@H](NC(=O)CNC(=O)[C@H](CCCNC(=N)N)NC(=O)[C@H](Cc3c[nH]c4ccccc34)NC(=O)[C@H](Cc3ccccc3)NC(=O)[C@@H]3CCCN3C(=O)[C@@H](NC(=O)[C@@H](N)CCSC)[C@@H](C)O)C(C)C)[C@@H](C)CC)C(=O)N[C@@H](CCCNC(=N)N)C(=O)N[C@@H](CC(=O)O)C(=O)N[C@@H](CC(N)=O)C(=O)N[C@@H](CO)C(=O)N[C@@H](CCC(=O)O)C(=O)N2)NC(=O)[C@H](CC(C)C)NC(=O)[C@H](CCSC)NC(=O)[C@H]([C@@H](C)O)NC1=O [disulfide LEAP-2] (H-MTPFWRGVSLRPIGASCRDNSECITMLCRKNRCFLRSASE-OH; disulfide 17-28, 23-33; N-terminus and C-terminus assumed)
- killing of L. monocytogenes [3]: killed most
- killing effect / inhibition of cell proliferation, S. Typhimurium [4]: 90%
- killing of S. aureus [5]: killed most
- E. coli killed (E. coli ATCC 43888): more than 90%
- time in which all L. monocytogenes were killed [2]: ≤ 30 min
- killing of S. aureus over time (Staphylococcus aureus): killed S. aureus gradually over time
- live/dead staining of L. monocytogenes (red fluorescence = dead) (L. monocytogenes): most of the cells were dead
- live/dead staining of S. aureus (red fluorescence = dead) (S. aureus): most of the cells were dead
- live/dead staining of E. coli (red fluorescence = dead) (E. coli): most of the cells were dead
